Here are results for one compound from article PMC6030077, “Dual role of HDAC10 in lysosomal exocytosis and DNA repair promotes neuroblastoma chemoresistance” (Scientific Reports, 2018).

Structures are written as SMILES.

For test [1], the system named is SK-N-AS cells. In words: Flow cytometric quantification of intracellular doxorubicin accumulation, SK-N-AS. Format: cell-based, human. Conditions: 100 ng/ml doxorubicin +/− 7.5 µM tubastatin A, 48 h. Here is the method:
For flow cytometric quantification of intracellular doxorubicin after HDAC6/10 inhibition, BE(2)-C, SK-N-AS, IMR-32, HAP1 wild type and HDAC10 knockout cells were seeded in 6-well dishes at a density of 1.5 ∗ 10^5 cells/well (BE(2)-C and SK-N-AS, HAP1) and 3 ∗ 10^5 cells/well (IMR-32). Cells were treated with 25 ng/ml, 50 ng/ml, 100 ng/ml or 1 µg/ml doxorubicin, respectively, for 3–48 h (see respective figure legend). Where indicated, cells were co-treated with HDAC6/10 or lysosomal inhibitors. In case of co-treatment with vacuolin-1, vacuolin-1 was directly added to cells under doxorubicin treatment 1 h or 24 h prior to analysis. Flow cytometric quantification of intracellular doxorubicin after HDAC6, HDAC10 or P-glycoprotein knockdown in BE(2)-C cells was performed 5 days (P-glycoprotein) or 6 days (HDAC6/10) after transfection with siRNA. To that end, cells were seeded 3–4 days after transfection into 6-well dishes at 1.5 ∗ 10^5 cells per well and treated with 100 ng/ml doxorubicin +/− HDAC6/10 and lysosomal inhibitors for the last 24 h. After doxorubicin treatment, BE(2)-C, SK-N-AS, IMR-32 and HAP1 cells were washed with ice-cold RPMI w/o phenol-red and detached using Trypsin/EDTA for 3 minutes at 37 °C. Cells were centrifuged, resuspended in RPMI w/o phenol red and doxorubicin fluorescence was quantified on a BD FACSCanto II platform using the PE filter setting.

Test [2] has as its target T1, HDAC10 (Homo sapiens, UniProt Q969S8).
T1 construct: NanoLuc®-HDAC10 FL Fusion Vector; host or cells: HeLa cells, stably transfected
T1 sequence (Q969S8 1-669): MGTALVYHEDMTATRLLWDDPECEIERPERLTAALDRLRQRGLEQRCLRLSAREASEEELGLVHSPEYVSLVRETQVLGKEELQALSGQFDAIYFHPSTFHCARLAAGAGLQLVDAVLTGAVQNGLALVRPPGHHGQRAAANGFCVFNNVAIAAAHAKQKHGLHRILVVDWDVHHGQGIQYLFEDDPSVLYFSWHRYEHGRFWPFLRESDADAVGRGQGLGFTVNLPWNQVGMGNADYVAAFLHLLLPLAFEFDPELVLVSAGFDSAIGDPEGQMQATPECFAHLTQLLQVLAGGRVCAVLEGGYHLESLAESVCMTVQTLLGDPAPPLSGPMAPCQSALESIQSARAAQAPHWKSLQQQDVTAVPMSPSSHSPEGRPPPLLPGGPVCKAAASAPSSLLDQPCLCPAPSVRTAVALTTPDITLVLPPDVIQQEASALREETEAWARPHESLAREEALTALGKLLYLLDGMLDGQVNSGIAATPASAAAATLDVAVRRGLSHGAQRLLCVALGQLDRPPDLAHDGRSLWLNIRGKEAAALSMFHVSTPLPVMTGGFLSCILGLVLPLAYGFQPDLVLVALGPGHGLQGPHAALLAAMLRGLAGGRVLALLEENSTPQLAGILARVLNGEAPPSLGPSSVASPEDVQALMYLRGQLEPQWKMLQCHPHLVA
In words: In-cell target engagement (NanoBRET) assay, NanoLuc-HDAC10. In kind it is binding. The text has this:
We next investigated if accumulation of lysosomes was also affected by inhibition of HDAC6 and HDAC10, respectively. […] Since no bona fide downstream target protein of HDAC10 has been described to date, we performed an in-cell target engagement (NanoBRET) assay that measures competitive displacement of a fluorescently-labeled tracer from NanoLuc® Luciferase coupled HDAC10 enzyme. […] To exclude that lysosomal accumulation after treatment with HDAC6/10 inhibitors was caused by off-target inhibition of class I HDACs, we treated BE(2)-C cells with 1 mM class I HDAC inhibitor valproic acid (VPA).
HeLa cells, stabily transfected with NanoBRET plasmids NanoLuc®-HDAC6 FL Fusion Vector and NanoLuc®-HDAC10 FL Fusion Vector (Promega, Madison, WI, USA) were seeded at 20.000 cells/well in white 96 well plates. Without further incubation, tracer (0.3 µM) and drugs were added in separate steps and plates were placed in a tissue culture incubator for 2 h. For NanoBRET quantification, plates were put at room temperature for 10 minutes. Nanoglow substrate, diluted in OptiMEM without phenol red, was added and measured within 10 minutes in an OPTIMA plate reader (460 nm emission for donor and 610LP filter for acceptor). The BRET signal was calculated by the ratio of acceptor signal and donor signal.

In test [3] the test system is BE(2)-C cells. In words: Confocal fluorescence microscopy of doxorubicin-loaded damaged nuclei. In kind it is cell-based, human. Conditions: 250 ng/ml doxorubicin + 7.5 µM tubastatin A, 24 h. Here is the method: BE(2)-C cells were seeded at a density of 2 ∗ 10^4 cells per well into an ibidi 8-well µ-slide one day before treatment. For analysis of doxorubicin uptake, cells were treated with 250 ng/ml doxorubicin +/− HDAC6/10 or lysosomal inhibitors for 24 h. The next day, cells were washed in PBS, fixed for 20 minutes using 4% PFA at room temperature, washed twice with PBS and counterstained with DAPI (4′,6-Diamidino-2-phenylindole). In case of LysoTracker® Red staining, cells were treated for 24 h with HDAC6/10 inhibitors. One hour before fixation, LysoTracker® Red was added at a final concentration of 50 nM and cells were stained for 1 h under standard cell culture conditions. Cells were washed as described, fixed for 15 minutes using 4% PFA at room temperature and counterstained as described above. […] Cells were fixed for 15 minutes using 4% PFA, permeabilized for 30 minutes with 0.2% Triton X-100 and blocked in 0.05% Triton X-100 and 3% BSA in PBS for 1 h at room temperature. Cells were stained with Phospho-Histone H2A.X (S139) primary antibody (CST #9718) over night (4 °C) and for 2 h with Alexa-488-labeled secondary antibody (ThermoFisher A-11008) at room temperature. Nuclei were counterstained with DAPI. Images were acquired on a Zeiss LSM710 (Oberkochen, Germany) laser scanning confocal microscope using the 40× objective.

Consider `CN1CCc2c(c3ccccc3n2Cc2ccc(C(=O)NO)cc2)C1` [tubastatin A], for which the “doxorubicin accumulation, SK-N-AS” value in test [1] is “increased accumulation of doxorubicin”. For the same compound, the “affinity towards HDAC10 (NanoBRET tracer displacement)” value in test [2] was “strong affinity towards HDAC10”. In test [3], the “dying cells with highly condensed chromatin, combination with doxorubicin compared to doxorubicin alone” value is reported as “increased the number of dying cells”.
